The text below walks through data of paper PMC6508961, “A high-throughput screen of pharmacologically active compounds for inhibitors of UHRF1 reveals epigenetic activity of anthracycline derivative chemotherapeutic drugs” (Oncotarget, 2019).

Where two headings read alike, the source gives them in different places.

The target in assay [1] is T1, UHRF1_SRA binding to hemimethylated DNA (Homo sapiens, UniProt Q96T88).
T1 construct: made in house; host or cells: E. coli BL-21 Gold
T1 sequence (Q96T88 419-582 limits assumed): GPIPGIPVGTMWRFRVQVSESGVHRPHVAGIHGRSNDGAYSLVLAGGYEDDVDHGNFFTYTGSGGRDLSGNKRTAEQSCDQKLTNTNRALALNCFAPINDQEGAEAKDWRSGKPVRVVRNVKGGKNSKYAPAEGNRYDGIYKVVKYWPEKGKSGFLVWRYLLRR
Briefly: TR-FRET assay, dose-response inhibition of UHRF1_SRA binding to FAM-labeled hemimethylated DNA. Particulars: for Dose-response validation of screen hits (result in words): dilution series 50 μM to 0.64 nM, quadruplicate. Here is the method: TR-FRET assays were performed in an optimized TR-FRET buffer (4% glycerol, 1 mM MgCl2, 0.5 mM EDTA, 0.5 mM DTT, 125 mM NaCl, 10 mM Tris HCl, and 0.2% Tween-20) in non-binding, flat-bottom 384-well plates (Corning). UHRF1_SRA protein was added to a final concentration of 125 nM and terbium-labeled antibody was added at 5 nM (Life Technologies) in a final reaction volume of 20 μL. For initial binding experiments examining the affinity of UHRF1_SRA to DNA, FAM-labeled hemimethylated or unmethylated double stranded oligonucleotides were added in a dilution series, and the reaction mixture was incubated at 4°C with shaking for 1 hour. TR-FRET measurements were made on a SpectraMax M5 (Molecular Devices, Sunnyvale, CA, USA), using an excitation wavelength of 332 nm and emissions read at 485 nm and 515 nm with a 50 μsec delay and 400 μsec integration. The ratio of the 515 nm emission (arising from FRET) to the 485 nm emission provides a normalized TR-FRET signal that represents the extent of binding. For inhibitor curves, FAM-labeled hemimethylated oligonucleotide was added to a final concentration of 100 nM, and unlabeled oligonucleotide was added in a dilution series. A Z’ factor was calculated for 32 replicates of UHRF1_SRA protein binding FAM-labeled hemimethylated DNA with or without the addition of an excess (5 μM) of unlabeled hemimethylated inhibitor (“cold” perfect competitive inhibitor positive control for inhibition):
Each hit compound was tested using the TR-FRET assay above in quadruplicate in a dilution series (50 μM to 0.64 nM). Curve fitting was performed using the open source software R version 2.15.2 with the ggplot2 package.

In assay [2] the target is T1, UHRF1_SRA binding to hemimethylated DNA. Briefly: LOPAC primary screen with the TR-FRET assay. The settings on record: 20 μM; hit = Z-score < −4.08, Bonferroni adjusted p-value < 0.05. As to the method:
The above TR-FRET assay was employed to screen the Library of Pharmacologically Active Compounds (LOPAC) (Sigma-Aldrich) using optimized conditions. 200 uM stock solutions of compounds dissolved in dimethyl sulfoxide (DMSO) were added to a final concentration of 20 μM across four 384-well plates containing 20 μL of TR-FRET buffer with 125 nM UHRF1_SRA protein, 100 nM double stranded FAM-labeled hemimethylated oligos, and 5 nM terbium labeled anti-HIS antibody. Controls on each plate include: 1) a DMSO-only vehicle control, 2) 5μM of unlabeled, methylated oligonucleotide as a positive inhibition control, 3) unmethylated, FAM-labeled oligonucleotide as a negative control, and 4) no UHRF1_SRA protein negative control. Each plate was incubated at 4° C for one hour and read using a Safire^2 (Tecan Group, Männedorf, Switzerland) with excitation at 332 nm and emissions read at 485 nm and 515 nm. A Z score of the TR-FRET signal (ratio of 515 nm signal to the 485 nm signal) was calculated for each compound using the following formula: […]
where x is the TR-FRET signal for each compound, x¯ is the median TR-FRET signal of all compounds on the plate, and σ is the standard deviation of all compound TR-FRET signals across the plate. Hits were defined as those compounds with Z-score < −4.08 corresponding to a Bonferroni adjusted p-value of less than 0.05.
Background: TR-FRET usually uses a lanthanide donor and a delayed reading to cut background.

The test system of assay [3] is DU-145 cells. The assay is described as follows: Clonogenic survival assay. The settings on record: 10 days; for Clonogenic survival, drug alone: decitabine 50 nM, mitoxantrone 2.5 nM, doxorubicin 5 nM; for Clonogenic survival, in combination with decitabine: mitoxantrone 2.5 nM or doxorubicin 5 nM with 50 nM decitabine.
Assay [4] concerns DU-145 cells. The assay is described as follows: Growth curve assay (IncuCyte). Particulars: mitoxantrone 1.25 nM or doxorubicin 5 nM or 10 nM with 50 nM decitabine. The format is cell-based. As to the method: The next day, cells were treated with a single dose of DMSO (vehicle control), decitabine alone (50 nM), mitoxantrone alone (1.25 nM), doxorubicin alone (5 nM or 10 nM), or decitabine in combination with mitoxantrone (1.25 nM) or doxorubicin (5 nM or 10 nM). Cell growth was measured using IncuCyte™ technology (Essen Bioscience, Ann Arbor, MI, USA) by imaging 16 fields per well at 6 hour intervals. The cell surface area and percent confluence were calculated using IncuCyte software, and growth curves were constructed in R using the ggplot2 package.

Assay [5] has as its system C42B prostate cancer cell line. Briefly: Cellular growth/proliferation assay. Type of assay: cell-based. Particulars: mitoxantrone 2.5 nM or doxorubicin 5 nM with decitabine 50 nM. As to the method: (§1) www.oncotarget.com Oncotarget, Supplementary Materials […]
(§2) derivative chemotherapeutic drugs
(§3) Supplementary Figure 1: Cellular growth/proliferation assays of C42B, PC-3 and LNCaP prostate cancer cell lines treated with mitoxantrone (2.5 nM) or doxorubicin (5 nM) in combination with decitabine (50 nM) or vehicle control (DMSO), decitabine alone, or DMSO alone.
(§4) (1 picture or pasted object on this page, not shown here)

In assay [6] the test system is LNCaP prostate cancer cell line. Briefly: Cellular growth/proliferation assay. The format is cell-based. The settings on record: mitoxantrone 2.5 nM or doxorubicin 5 nM with decitabine 50 nM. Here is the method:
as §1, §2, §3, §4

Assay [7] relates to PC-3 prostate cancer cell line. The assay is described as follows: Cellular growth/proliferation assay. The format is cell-based. The settings on record: mitoxantrone 2.5 nM or doxorubicin 5 nM with decitabine 50 nM. As to the method:
as §1, §2, §3, §4

The mark [8] stands for this setting: 125 nM UHRF1_SRA, 100 nM FAM-labeled hemimethylated oligo, read-out: IC50 of inhibition of UHRF1_SRA binding to labeled hemimethylated DNA.

As to `NC(Cc1cc(O)c(O)cc1O)C(=O)O` (racemic) [6-OH-DL-DOPA], the “Dose-response validation of screen hits (result in words)” value (from here on “Dose-response validation of screen hits”) in assay [1] is on record as “failed to show any appreciable inhibition”. Moreover, the “Inhibition of UHRF1_SRA binding to hemimethylated DNA in pilot screen” value (“Inhibition of UHRF1_SRA binding” for short) in assay [2] is on record as “significantly inhibited”.
Consider `S=C=Nc1ccc2oc(C3=NCCN3)cc2c1` [BU99006], for which, in assay [1], the “Dose-response validation of screen hits” value is “failed to show any appreciable inhibition”. In assay [2], the “Inhibition of UHRF1_SRA binding” value was “significantly inhibited”.
The term IC50 denotes the midpoint of a concentration-inhibition curve. As to `COc1cccc2c1C(=O)c1c(O)c3c(c(O)c1C2=O)C[C@@](O)(C(C)=O)C[C@@H]3O[C@H]1C[C@H](N)[C@H](O)[C@H](C)O1` [Daunorubicin, daunorubicin], the IC50 in assay [1] (setting [8]) worked out at 313 nM.
Take `O=C(Nc1cccc(C(=O)Nc2ccc(S(=O)(=O)O)c3cc(S(=O)(=O)O)cc(S(=O)(=O)O)c23)c1)Nc1cccc(C(=O)Nc2ccc(S(=O)(=O)O)c3cc(S(=O)(=O)O)cc(S(=O)(=O)O)c23)c1` [NF023]: in assay [1] (setting [8]), the IC50 is 840 nM. In addition, the “Dose-response validation of screen hits” value in assay [1] is reported as “inhibited binding with a sigmoidal dose response”. Besides, the “Inhibition of UHRF1_SRA binding” value in assay [2] was “significantly inhibited”.
In the same order, the values of `O=C(Nc1cc(C(=O)Nc2ccc(S(=O)(=O)O)cc2S(=O)(=O)O)cc(C(=O)Nc2ccc(S(=O)(=O)O)cc2S(=O)(=O)O)c1)Nc1cc(C(=O)Nc2ccc(S(=O)(=O)O)cc2S(=O)(=O)O)cc(C(=O)Nc2ccc(S(=O)(=O)O)cc2S(=O)(=O)O)c1` [NF449] are 393 nM, “inhibited binding with a sigmoidal dose response” and “significantly inhibited”.
As for `N=C1Sc2ccccc2C2=NCCCN12` [PD404,182], the “Dose-response validation of screen hits” value in assay [1] is given as “failed to show any appreciable inhibition”. Also, the “Inhibition of UHRF1_SRA binding” value in assay [2] is on record as “significantly inhibited”.
As for `Cc1nc(N=Nc2cc(S(=O)(=O)O)c3cc([N+](=O)[O-])cc(S(=O)(=O)O)c3c2)c(COP(=O)(O)O)c(C=O)c1O` [PPNDS], in assay [1] (setting [8]), the IC50 is 770 nM. Moreover, the “Dose-response validation of screen hits” value in assay [1] was “inhibited binding with a sigmoidal dose response”. Moreover, the “Inhibition of UHRF1_SRA binding” value in assay [2] is listed as “significantly inhibited”.
`NCCNc1ccc(NCCN)c2c1C(=O)c1ccncc1C2=O` [Pixantrone, pixantrone]: in assay [1] (setting [8]), the IC50 amounted to 557 nM.
Take `Nc1c(S(=O)(=O)O)cc(Nc2ccc(Nc3nc(Cl)nc(Nc4cccc(S(=O)(=O)O)c4)n3)c(S(=O)(=O)O)c2)c2c1C(=O)c1ccccc1C2=O` [Reactive Blue 2]: the “Inhibition of UHRF1_SRA binding” value in assay [2] was “significantly inhibited”.
With `Cc1ccc(C(=O)Nc2ccc(S(=O)(=O)O)c3cc(S(=O)(=O)O)cc(S(=O)(=O)O)c23)cc1NC(=O)c1cccc(NC(=O)Nc2cccc(C(=O)Nc3cc(C(=O)Nc4ccc(S(=O)(=O)O)c5cc(S(=O)(=O)O)cc(S(=O)(=O)O)c45)ccc3C)c2)c1` [Suramin], the half-inhibitory concentration (IC50) in assay [1] (setting [8]) is 2250 nM. Moreover, in assay [1], the “Dose-response validation of screen hits” value is given as “inhibited binding with a sigmoidal dose response”. The “Inhibition of UHRF1_SRA binding” value in assay [2] is “significantly inhibited”.
For `O=C(O)C1=CC(=C(c2ccc(O)c(C(=O)O)c2)c2ccc(O)c(C(=O)O)c2)C=CC1=O` [aurintricarboxylic acid], the IC50 in assay [1] (setting [8]) amounted to 21 nM. Besides, in assay [1], the “Dose-response validation of screen hits” value was “inhibited binding with a sigmoidal dose response”. The “Inhibition of UHRF1_SRA binding” value in assay [2] is “significantly inhibited”.
As for `Nc1ncn([C@H]2C[C@H](O)[C@@H](CO)O2)c(=O)n1` [decitabine], the “Clonogenic survival, drug alone” value with DU-145 cells [3] is recorded as “some reduction in clonogenic survival”.
Turning to `CN(N=O)c1cc(O)ccc1O` [dephostatin], the “Dose-response validation of screen hits” value in assay [1] was “failed to show any appreciable inhibition”. In addition, the “Inhibition of UHRF1_SRA binding” value in assay [2] is given as “significantly inhibited”.
`COc1cccc2c1C(=O)c1c(O)c3c(c(O)c1C2=O)C[C@@](O)(C(=O)CO)C[C@@H]3O[C@H]1C[C@H](N)[C@H](O)[C@H](C)O1` [doxorubicin] displayed a half-inhibitory concentration (IC50) in assay [1] of 131 nM. Besides, the “Growth curve analysis, in combination with decitabine” value in the assay on DU-145 cells [4] was “synergy”. Moreover, the “Growth/proliferation, combination with decitabine” value in assay [5] is “showed enhanced”; in assay [6] it was “did not show enhanced growth inhibition”; in assay [7] it was “showed enhanced”. For the same compound, the “Clonogenic survival, drug alone” value in the assay with DU-145 cells [3] is “some reduction in clonogenic survival”. Also, the “Clonogenic survival, in combination with decitabine” value in the assay on DU-145 cells [3] is “significantly enhanced reduction in clonogenic survival”.
For `CC(=O)[C@]1(O)Cc2c(O)c3c(c(O)c2[C@@H](O[C@H]2C[C@H](N)[C@H](O)[C@H](C)O2)C1)C(=O)c1ccccc1C3=O` [idarubicin], the IC50 in assay [1] (setting [8]) was determined as 593 nM. Moreover, the “Dose-response validation of screen hits” value in assay [1] is “inhibited binding with a sigmoidal dose response”. Moreover, the “Inhibition of UHRF1_SRA binding” value in assay [2] is “significantly inhibited”.
For the compound `CN(N=O)c1ccc(O)c(O)c1` [methyl-3,4-dephostatin], the “Dose-response validation of screen hits” value in assay [1] is listed as “failed to show any appreciable inhibition”. In assay [2], the “Inhibition of UHRF1_SRA binding” value is listed as “significantly inhibited”.
Consider `O=C1c2c(O)ccc(O)c2C(=O)c2c(NCCNCCO)ccc(NCCNCCO)c21` [mitoxantrone], for which the IC50 in assay [1] (setting [8]) was 134 nM. Also, in assay [1], the “Dose-response validation of screen hits” value is reported as “inhibited binding with a sigmoidal dose response”. The “Inhibition of UHRF1_SRA binding” value in assay [2] is reported as “significantly inhibited”. For the same compound, the “Growth curve analysis, in combination with decitabine” value with DU-145 cells [4] is reported as “synergy”. The “Growth/proliferation, combination with decitabine” value in assay [5], in assay [6] and in assay [7] was “enhanced inhibition of” throughout. Besides, the “Clonogenic survival, drug alone” value in the assay with DU-145 cells [3] was “some reduction in clonogenic survival”. The “Clonogenic survival, in combination with decitabine” value in the assay on DU-145 cells [3] was “significantly enhanced reduction in clonogenic survival”.
For the compound `N#CC(C#N)=C(N)/C(C#N)=C/c1cc(O)c(O)c(O)c1` [tyrphostin 51], the “Dose-response validation of screen hits” value in assay [1] is “failed to show any appreciable inhibition”. Further, in assay [2], the “Inhibition of UHRF1_SRA binding” value is listed as “significantly inhibited”.
